Results reported in patent US20030220524A1, “Sulfur containing compounds” (priority 2000, published 2003).
pIC50: −log10 of the molar value. Where two headings read alike, the source gives them in different places.

Legend:
Type in all cases: cell-based, human
[1] = system: AML-2 leukemic cell line; experiment: MTT assay; details: 48 h, read-out: MTT50
[2] = system: NB-4 leukemic cell line; experiment: MTT assay; details: 48 h, read-out: MTT50
[3] = system: W1 leukemic cell line; experiment: MTT assay; details: 48 h, read-out: MTT50
[4] = system: G2 leukemic cell line; experiment: MTT assay; details: Homo sapiens, 48 h, read-out: MTT50
[5] = system: B1 leukemic cell line; experiment: Fixed propidium iodide staining, flow cytometry; details: 48 h
[6] = system: G2 leukemic cell line; experiment: Fixed propidium iodide staining, flow cytometry; details: 48 h
[7] = system: W1 leukemic cell line; experiment: Fixed propidium iodide staining, flow cytometry; details: 48 h

## CSSCS(=O)(=O)c1ccc(C)cc1 [Compound C, α-p-toluenesulfonyl dimethyl disulphide]
[1]
  pIC50: 4.88
[2]; NB-4
  pIC50: 4.93
[3]
  pIC50: 5.06

## CSSc1ccc([N+](=O)[O-])cc1 [M, methyl p-nitrophenyl disulphide]
[4]
  pIC50: 4.95
[2]; Homo sapiens, NB-4
  pIC50: 4.67
[3]; Homo sapiens
  pIC50: 5.32
[5]; dose 20 uM
  % pre-G1 (Fixed PI): 70%
[5]; dose 40 uM
  % pre-G1 (Fixed PI): 76%
[6]; dose 20 uM
  % pre-G1 (Fixed PI): 10%
[6]; dose 40 uM
  % pre-G1 (Fixed PI): 43%
[7]; dose 20 uM
  % pre-G1 (Fixed PI): 9%
[7]; dose 40 uM
  % pre-G1 (Fixed PI): 28%

## CCC(=O)OCSSc1ccccc1 [Compound Q, 1-phenyl-1,2-dithiapropyl propionate]
[4]
  pIC50: 4.83
[3]; Homo sapiens
  pIC50: 4.89
[5]; dose 20 uM
  % G2 increase (Fixed PI): 0%
  % pre-G1 (Fixed PI): 5%
[5]; dose 40 uM
  % G2 increase (Fixed PI): −3%
  % pre-G1 (Fixed PI): 20%
[6]; dose 20 uM
  % G2 increase (Fixed PI): −1%
  % pre-G1 (Fixed PI): 31%
[6]; dose 40 uM
  % G2 increase (Fixed PI): −3%
  % pre-G1 (Fixed PI): 55%
[7]; dose 20 uM
  % G2 increase (Fixed PI): +4%
  % pre-G1 (Fixed PI): 20%
[7]; dose 40 uM
  % G2 increase (Fixed PI): +12%
  % pre-G1 (Fixed PI): 49%

## CSCSSC [Compound N, 2,3,5-trithiahexane]
[2]; Homo sapiens
  pIC50: 4.22
[5]; dose 50 uM
  % G2 increase (Fixed PI): +2%
[5]; dose 150 uM
  % G2 increase (Fixed PI): −1%
  % pre-G1 (Fixed PI): 35%
[6]; dose 50 uM
  % G2 increase (Fixed PI): +8%
  % pre-G1 (Fixed PI): 16%
[6]; dose 150 uM
  % G2 increase (Fixed PI): +8%
  % pre-G1 (Fixed PI): 29%
[7]; dose 50 uM
  % G2 increase (Fixed PI): +10%
  % pre-G1 (Fixed PI): 22%
[7]; dose 150 uM
  % pre-G1 (Fixed PI): 33%

## CSSCC(=O)c1ccccc1 [Compound P, phenacyl methyl disulphide]
[2]; Homo sapiens, NB-4
  pIC50: 4.22
[5]; dose 50 uM
  % pre-G1 (Fixed PI): 52%
[5]; dose 150 uM
  % pre-G1 (Fixed PI): 80%
[6]; dose 50 uM
  % pre-G1 (Fixed PI): 6%
[6]; dose 150 uM
  % pre-G1 (Fixed PI): 63%
[7]; dose 50 uM
  % pre-G1 (Fixed PI): 14%
[7]; dose 150 uM
  % pre-G1 (Fixed PI): 55%

## CS(=O)(=O)CSSc1ccccc1 [E, 5-phenyl-2,4,5-trithiapentane 2,2-dioxide]
[1]; Homo sapiens
  pIC50: 4.81
[4]
  pIC50: 5.44
[2]; Homo sapiens, NB-4
  pIC50: 4.60

## CSSCCS(C)(=O)=O [F, 2,3,6-trithiaheptane 6,6,-dioxide]
[1]
  pIC50: 4.42
